Here are results for nine compounds from patent US4329495A, “Enkephalinase enzyme inhibiting compounds” (Pfizer Inc., priority 1981, dated 1982).

The subject of experiment [1] is abdominal stretching after phenylbenzoquinone (PBQ). The experiment is described as follows: analgesic activity: blockade of abdominal stretching after phenylbenzoquinone (PBQ). The experiment is classed as in vivo, mice, Carworth CF-1 strain. On the set-up: key: (a): No significant activity noted at this dose level. The following applies: s.c., 20 min. pre-treatment. As to the method: To test for the analgesic activity of the compounds of the present invention, a chemical nociceptive stimulus is employed, viz., blockade of abdominal stretching after phenylbenzoquinone (PBQ). […] The animals to be used are fasted for 15-16 hr. before the start of the experiment. Fifteen mice (groups of 5) weighing 11-15 g. are employed per dose level. Compounds are given by the oral or subcutaneous route. Drug pre-treatment times are 1 hr. (p.o.) and 20 min. (s.c.). Pairs of mice are injected with 2 mg./kg. of PBQ i.p. and placed in a lucite box (11×7×9.5 in.) maintained at 40° by a thermostatically controlled water bath. Starting 5 min. later the animals are observed for 5 min. and the number of abdominal stretching responses per animal is recorded. A stretch is considered to represent an intermittent contraction of the abdomen, hind limb extension, pelvic rotation, or opisthotonos (the abdomen of the mouse touches the floor of the cage and is dragged the length of the cage). The degree of analgesic protection is calculated on the basis of the suppression of writhing relative to control animals run on the same day (% MPE). This test reflects the ultimate clinical utility of the compounds as analgesic agents.

Experiment [2] deals with T1, enkephalinase (Rattus norvegicus, UniProt P07861).
T1 construct: whole brain (minus cerebellum) is removed from Sprague-Dawley CD male rats; from tissue; host or cells: rat whole brain minus cerebellum (Sprague-Dawley CD male rats, Charles River); washed membranes solubilized with 1% Triton X-100
T1 sequence (P07861 1-750): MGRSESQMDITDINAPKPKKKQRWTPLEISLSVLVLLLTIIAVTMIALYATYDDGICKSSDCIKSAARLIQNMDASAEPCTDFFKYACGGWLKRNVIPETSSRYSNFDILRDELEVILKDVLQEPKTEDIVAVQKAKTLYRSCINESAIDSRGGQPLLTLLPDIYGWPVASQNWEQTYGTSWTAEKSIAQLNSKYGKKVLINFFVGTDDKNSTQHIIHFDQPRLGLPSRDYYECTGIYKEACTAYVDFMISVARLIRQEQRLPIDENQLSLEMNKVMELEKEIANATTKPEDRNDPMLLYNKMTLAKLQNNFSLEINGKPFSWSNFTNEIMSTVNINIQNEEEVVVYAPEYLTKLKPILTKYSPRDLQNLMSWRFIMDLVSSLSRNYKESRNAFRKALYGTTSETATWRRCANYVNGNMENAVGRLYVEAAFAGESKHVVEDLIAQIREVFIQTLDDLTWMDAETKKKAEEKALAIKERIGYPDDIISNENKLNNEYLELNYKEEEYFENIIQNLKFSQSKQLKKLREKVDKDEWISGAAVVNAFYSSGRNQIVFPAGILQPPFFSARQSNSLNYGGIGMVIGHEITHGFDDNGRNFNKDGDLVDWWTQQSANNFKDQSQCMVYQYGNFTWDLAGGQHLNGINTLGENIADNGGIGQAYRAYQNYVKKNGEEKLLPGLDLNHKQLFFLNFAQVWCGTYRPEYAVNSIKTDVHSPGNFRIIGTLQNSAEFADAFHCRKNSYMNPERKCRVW
In words: inhibition of enkephalinase enzyme in vitro (Tyr-gly-gly formation from 3H-leucine-enkephalin). The experiment is classed as biochemical, Sprague-Dawley CD male rats (whole brain minus cerebellum). The settings on record: pH 7.7, 37° C., 1 hour.
Procedure: The compounds of the present invention are studied in vitro for inhibition of enkephalinase enzyme in the following manner. To prepare the enzyme, whole brain (minus cerebellum) is removed from Sprague-Dawley CD male rats (Charles River Breeding Laboratories, Inc., Wilmington, MA; 200-250 g.) following decapitation. The tissue is homogenized (Polytron, Brinkmann Instruments, Inc., Westbury, NY) in 30 volumes (w/v) of ice-cold 50 mM Tris-HCl tris(hydroxymethyl)methylamine hydrochloride, Fisher Scientific Co., Fair Lawn, NJ) pH 7.7 buffer. The homogenate in centrifuged at 50,000×g. for 15 minutes. The pellet is resuspended in 50 mM Tris-HCl pH 7.7 buffer and centrifuged at 50,000×g. for 15 minutes. The resultant pellet is resuspended and centrifuged 3 additional times as described above. The membrane pellet is dispersed in 15 volumes of 50 mM Tris-HCl pH 7.7 buffer containing 1% Triton X-100 (Rohm and Haas, Philadelphia, PA) and incubated at 37° C. for 45 minutes. After centrifugation at 100,000×g. for 60 minutes, the solubilized enzymes are frozen in 2 ml. aliquots (this preparation can be stored frozen for 3 months).
One set of control tubes contains boiled enzyme (heated at 100° C. for 10 minutes) for blank. The reaction is stopped by boiling tubes for 10 minutes, followed by centrifugation for 1 minute in the Beckman Microfuge centrifuge. A ten microl aliquot of each supernatant is spotted on a thin layer chromatography (TLC) plate (Silica Gel 60, 20×20 cm, E. Merck, Darmstadt, Germany) using 1-8 samples per plate. Ten microl of a standard mixture consisting of 0.4 mg./ml. tyrosine (tyr, Mann Research Laboratories, Inc., New York, NY), 1 mg./ml. L-tyrosylglycine (tyr-gly Sigma), 1 mg./ml. L-tyrosylglycylglycine (tyr-gly-gly, Sigma) and 1 mg./ml. leucine-enkephalin (leu-E, Calbiochem-Behring Corp., La Jolla, CA) are spotted on top of each incubation mixture spot, as well as separately on each plate, to aid in zone indentification.
Plates are dried and placed in covered glass tanks equilibrated with 100 ml. of isopropanol:ethyl acetate:5% acetic acid (2:2:1). After development of the TLC plates, the separated products were visualized by spraying with a ninhydrin:acetone (0.5%, w/v) solution and heating for 10 minutes at 100° C. in a vacuum oven. Rf values of standard markers are: tyr, 0.33; tyr-gly, 0.20: tyr-gly-gly, 0.13; leu-E, 0.47. The radioactive spots are identified by the added markers and scraped into scintillation vials to which 1 ml. ethanol is added, followed by 10 ml. Aquasol-2 (New England Nuclear). Vials are kept overnight and counted for radioactivity in a liquid scintillation counter. Tyr-gly-gly formation is based on the difference between total counts per minute for this TLC zone minus the corresponding value obtained by using boiled enzyme (blank). […]

The subject of experiment [3] is supramaximal electroconvulsive shock (ECS). In words: anticonvulsant effect vs. supramaximal electroconvulsive shock (ECS) in mice. The experiment is classed as in vivo, Charles River males, Swiss CD strain. The following applies: for ED50: Mus musculus, sc, mice, 1 hr. before ECS. On the procedure: The anticonvulsant activity of the compounds of the present invention is determined by testing in mice, viz., Charles River males, Swiss CD strain (17-21 g.), fasted for 18 hr. before testing. Groups of mice are treated with a range of levels of the test compounds, and 1 hr. later with supramaximal electroconvulsive shock (ECS), administered for 0.2 sec. at 50 mA, 60 Hz, through transcorneal electrodes. After administration of the electrical stimulus, each mouse is observed for 10 sec. for the presence or absence of hind limb tonic extension. […] Blockade of supramaximal ECS in mice is a common laboratory test for clinical utility as an anticonvulsant, and certain known anticonvulsant drugs show activity in this test.

For experiment [4], the system named is enkephalinase. The following applies: Roques et al., Nature 288, 286-288 (1980); cited from earlier work.
Another experiment relates to hot plate jump test. The settings on record: mice; Roques et al.; cited from earlier work.
Another experiment relates to tail withdrawal test. The settings on record: mice; Roques et al.; cited from earlier work.

`CSCC[C@@H](CO)NC(=O)[C@@H](CS)Cc1ccc(Cl)cc1` [I (X=4-Cl, R=H, n=2, m=0, R^1=CH3)]: the “Percent Blockade of Abdominal Stretching (% MPE) After Phenylbenzoquinone” value in experiment [1] (320 mg./kg.) came to 86 % MPE.

As to `COc1ccc(C[C@H](CS)C(=O)N[C@H](CO)CCSC)cc1` [I (X=4-OCH3, R=H, n=2, m=0, R^1=CH3)], in experiment [1] (320 mg./kg.), the “Percent Blockade of Abdominal Stretching (% MPE) After Phenylbenzoquinone” value stood at 62 % MPE.

`CSCC[C@@H](CO)NC(=O)[C@@H](CS)Cc1ccccc1` [I (X=H, R=H, n=2, m=0, R^1=CH3)]: the concentration for half-maximal inhibition (IC50) – broadly, the concentration that inhibits the measured activity by half – at enkephalinase [2] stood at 480 nM. Further, the “Percent Blockade of Abdominal Stretching (% MPE) After Phenylbenzoquinone” value in experiment [1] (170 mg./kg.) was found to be 23 % MPE; in experiment [1] (233 mg./kg.) it was 69 % MPE; in experiment [1] (320 mg./kg.), 100 % MPE. It took a dose of 178 mg/kg to reach the 50% effect level in experiment [3] (ED50).

Consider `CSCC[C@@H](CO)NC(=O)[C@H](CS)Cc1ccc(Cl)cc1` [II (X=4-Cl, R=H, n=2, m=0, R^1=CH3)], for which the “Percent Blockade of Abdominal Stretching (% MPE) After Phenylbenzoquinone” value in experiment [1] (320 mg./kg.) came out at 75 % MPE.

Consider `COc1ccc(C[C@@H](CS)C(=O)N[C@H](CO)CCSC)cc1` [II (X=4-OCH3, R=H, n=2, m=0, R^1=CH3)], for which the “Percent Blockade of Abdominal Stretching (% MPE) After Phenylbenzoquinone” value in experiment [1] (320 mg./kg.) is reported as 46 % MPE.

In turn, `CSCC[C@@H](CO)NC(=O)[C@H](CS)Cc1ccccc1` [II (X=H, R=H, n=2, m=0, R^1=CH3)] yielded an IC50 against enkephalinase [2] of 9600 nM. Further, the “Percent Blockade of Abdominal Stretching (% MPE) After Phenylbenzoquinone” value in experiment [1] (320 mg./kg.) is recorded as “(a)”.

`CSCC[C@H](NC(=O)[C@H](CS)Cc1ccccc1)C(=O)O` [III]: the IC50 on enkephalinase [2] turned out to be 9.1 nM. The “Percent Blockade of Abdominal Stretching (% MPE) After Phenylbenzoquinone” value in experiment [1] (160 mg./kg.) was 57 % MPE. For the same compound, it took a dose of 74.1 mg/kg to reach the 50% effect level in experiment [3] (ED50).

In turn, `CSCC[C@H](NC(=O)[C@@H](CS)Cc1ccccc1)C(=O)O` [IV] came in with an IC50 against enkephalinase [2] of 70 nM. Moreover, the “Percent Blockade of Abdominal Stretching (% MPE) After Phenylbenzoquinone” value in experiment [1] (160 mg./kg.) is given as 48 % MPE. In addition, the median effective dose (ED50) (commonly the midpoint of the dose-response relation) in experiment [3] came to 141 mg/kg.

In experiment [3], `O=C(O)CNC(=O)C(CS)Cc1ccccc1` (stereo not shown) [Thiorphan, N-(2-benzyl-3-mercaptopropionyl)glycine] yielded a 50% effective dose (ED50) of more than 320 mg/kg. In addition, in experiment [3] (even at a much higher dose), the “anticonvulsant activity (in words)” value is “inactive”. For the same compound, the “enkephalinase inhibition (in words)” value in the experiment on enkephalinase [4] is on record as “specific enkephalinase inhibitor”. Moreover, in the experiment on hot plate jump test, the “analgesic (antinociceptive) activity, hot plate jump test (in words)” value is “elicit analgesic (antinociceptive) activity”. Moreover, the “analgesic (antinociceptive) activity, tail withdrawal test (in words)” value in the experiment with tail withdrawal test is “not in the so-called tail withdrawal test”.
